Measurements as given in PubChem BioAssay (NCI).
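Interpolation was linear, between the two tested concentrations surrounding the appropriate level; five concentrations were tested over 48 hours in 96-well plates. TGI denotes the concentration required for complete inhibition of growth.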

Experiments:
Assay in all cases: growth of human tumour cells (NCI), 48 h
[1] = tested on: 786-0 renal
[2] = tested on: A498 renal
[3] = tested on: A549 NSCLC
[4] = tested on: ACHN renal
[5] = tested on: BT-549 breast
[6] = tested on: CAKI-1 renal
[7] = tested on: CCRF-CEM leukemia
[8] = tested on: COLO 205 colon
[9] = tested on: DU-145 prostate
[10] = tested on: EKVX NSCLC
[11] = tested on: HCC-2998 colon
[12] = tested on: HCT-116 colon
[13] = tested on: HCT-15 colon
[14] = tested on: HL-60(TB) leukemia
[15] = tested on: HOP-62 NSCLC
[16] = tested on: HOP-92 NSCLC
[17] = tested on: HS 578T breast
[18] = tested on: HT29 colon
[19] = tested on: IGROV1 ovarian
[20] = tested on: K-562 leukemia
[21] = tested on: KM12 colon
[22] = tested on: LOX IMVI melanoma
[23] = tested on: M14 melanoma
[24] = tested on: MALME-3M melanoma
[25] = tested on: MCF7 breast
[26] = tested on: MDA-MB-231 breast
[27] = tested on: MDA-MB-435
[28] = tested on: MDA-N
[29] = tested on: MOLT-4 leukemia
[30] = tested on: NCI-H226 lung
[31] = tested on: NCI-H23 lung
[32] = tested on: NCI-H460 lung
[33] = tested on: NCI-H522 lung
[34] = tested on: NCI/ADR-RES ovarian
[35] = tested on: OVCAR-4 ovarian
[36] = tested on: OVCAR-5 ovarian
[37] = tested on: OVCAR-8 ovarian
[38] = tested on: PC-3 prostate
[39] = tested on: RPMI-8226 leukemia
[40] = tested on: RXF 393 renal
[41] = tested on: SF-268 CNS
[42] = tested on: SF-295 CNS
[43] = tested on: SK-MEL-2 melanoma
[44] = tested on: SK-MEL-28 melanoma
[45] = tested on: SK-MEL-5 melanoma
[46] = tested on: SK-OV-3 ovarian
[47] = tested on: SN12C renal
[48] = tested on: SNB-19 CNS
[49] = tested on: SR leukemia
[50] = tested on: SW-620 colon
[51] = tested on: T-47D breast
[52] = tested on: TK-10 renal
[53] = tested on: U251 CNS
[54] = tested on: UACC-257 melanoma
[55] = tested on: UACC-62 melanoma
[56] = tested on: UO-31 renal
[57] = tested on: OVCAR-3 ovarian
[58] = tested on: SNB-75 CNS

N=C1OC(CN2CCN(c3ccccc3)CC2)CN1C(=O)Nc1ccccc1 (centres undefined)
TGI [1]: > 100 µM | TGI [2]: > 100 µM | TGI [3]: > 100 µM | TGI [4]: > 100 µM | TGI [5]: > 100 µM | TGI [6]: > 100 µM | TGI [7]: > 100 µM | TGI [8]: > 100 µM | TGI [9]: > 100 µM | TGI [10]: > 100 µM | TGI [11]: > 100 µM | TGI [12]: > 100 µM | TGI [13]: > 100 µM | TGI [14]: > 100 µM | TGI [15]: > 100 µM | TGI [16]: > 100 µM | TGI [17]: > 100 µM | TGI [18]: > 100 µM | TGI [19]: > 100 µM | TGI [20]: > 100 µM | TGI [21]: > 100 µM | TGI [22]: > 100 µM | TGI [23]: > 100 µM | TGI [24]: > 100 µM | TGI [25]: > 100 µM | TGI [26]: > 100 µM | TGI [27]: > 100 µM | TGI [28]: > 100 µM | TGI [29]: > 100 µM | TGI [30]: > 100 µM | TGI [31]: > 100 µM | TGI [32]: > 100 µM | TGI [33]: > 100 µM | TGI [34]: > 100 µM | TGI [35]: > 100 µM | TGI [36]: > 100 µM | TGI [37]: > 100 µM | TGI [38]: > 100 µM | TGI [39]: > 100 µM | TGI [40]: > 100 µM | TGI [41]: > 100 µM | TGI [42]: > 100 µM | TGI [43]: > 100 µM | TGI [44]: > 100 µM | TGI [45]: > 100 µM | TGI [46]: > 100 µM | TGI [47]: > 100 µM | TGI [48]: > 100 µM | TGI [49]: > 100 µM | TGI [50]: > 100 µM | TGI [51]: > 100 µM | TGI [52]: > 100 µM | TGI [53]: > 100 µM | TGI [54]: > 100 µM | TGI [55]: > 100 µM | TGI [56]: > 100 µM

O=C(O)/C=C/c1c2ccc(=O)c(O)c-2oc2c(O)c(O)ccc12
TGI [1]: 54.9 µM | TGI [2]: > 100 µM | TGI [3]: > 100 µM | TGI [4]: > 100 µM | TGI [5]: > 100 µM | TGI [6]: > 100 µM | TGI [7]: 23.2 µM | TGI [8]: > 100 µM | TGI [9]: > 100 µM | TGI [10]: > 100 µM | TGI [11]: > 100 µM | TGI [12]: 40 µM | TGI [13]: > 100 µM | TGI [14]: > 100 µM | TGI [15]: 61.1 µM | TGI [16]: > 100 µM | TGI [17]: > 100 µM | TGI [18]: > 100 µM | TGI [19]: > 100 µM | TGI [20]: 50.2 µM | TGI [21]: > 100 µM | TGI [22]: 62.2 µM | TGI [23]: > 100 µM | TGI [24]: > 100 µM | TGI [25]: 34.8 µM | TGI [26]: 66.5 µM | TGI [27]: 33.5 µM | TGI [28]: 34.5 µM | TGI [29]: 49.2 µM | TGI [30]: > 100 µM | TGI [31]: > 100 µM | TGI [32]: > 100 µM | TGI [33]: > 100 µM | TGI [34]: > 100 µM | TGI [57]: > 100 µM | TGI [35]: > 100 µM | TGI [36]: > 100 µM | TGI [37]: > 100 µM | TGI [38]: > 100 µM | TGI [39]: 55.9 µM | TGI [40]: > 100 µM | TGI [41]: > 100 µM | TGI [42]: 55 µM | TGI [43]: > 100 µM | TGI [44]: > 100 µM | TGI [45]: > 100 µM | TGI [46]: > 100 µM | TGI [47]: 32.3 µM | TGI [48]: > 100 µM | TGI [58]: > 100 µM | TGI [49]: > 100 µM | TGI [50]: 49.6 µM | TGI [51]: > 100 µM | TGI [52]: > 100 µM | TGI [53]: 35.3 µM | TGI [54]: > 100 µM | TGI [55]: > 100 µM | TGI [56]: > 100 µM
